From BindingDB's records for doi:10.1016/j.chembiol.2014.09.011 (Astrazeneca R&D, 2014)
pIC50: −log10 of the molar value.

Assays:
Assay in all cases: AMPD Enzymatic Activity Assay
Details in all cases: pH 7.4
AMP deaminase 3 [1] = target: T1, AMP deaminase 3 (Rattus norvegicus, UniProt O09178)
T1 sequence (O09178 whole entry): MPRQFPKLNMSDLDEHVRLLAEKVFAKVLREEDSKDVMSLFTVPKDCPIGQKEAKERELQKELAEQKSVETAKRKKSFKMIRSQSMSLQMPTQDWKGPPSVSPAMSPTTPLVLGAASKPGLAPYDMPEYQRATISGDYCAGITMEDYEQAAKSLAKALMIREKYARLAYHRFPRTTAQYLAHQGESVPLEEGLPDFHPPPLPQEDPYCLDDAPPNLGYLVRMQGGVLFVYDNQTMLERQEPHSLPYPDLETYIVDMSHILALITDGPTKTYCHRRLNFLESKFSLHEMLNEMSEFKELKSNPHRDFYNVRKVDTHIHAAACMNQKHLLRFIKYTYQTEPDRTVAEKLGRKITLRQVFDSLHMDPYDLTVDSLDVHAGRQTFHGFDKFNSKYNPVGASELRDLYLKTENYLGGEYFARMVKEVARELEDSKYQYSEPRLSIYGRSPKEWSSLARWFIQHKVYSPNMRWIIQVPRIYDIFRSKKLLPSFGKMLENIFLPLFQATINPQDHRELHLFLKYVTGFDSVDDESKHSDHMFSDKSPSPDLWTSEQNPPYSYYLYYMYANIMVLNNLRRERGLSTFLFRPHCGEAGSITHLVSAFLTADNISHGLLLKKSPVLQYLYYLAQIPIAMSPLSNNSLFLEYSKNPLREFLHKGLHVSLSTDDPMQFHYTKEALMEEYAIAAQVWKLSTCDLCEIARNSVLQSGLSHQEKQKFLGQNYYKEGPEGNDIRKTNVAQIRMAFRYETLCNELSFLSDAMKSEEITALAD
Method: (§1) AMPD1 was added to buffer A (50 mM HEPES, 150 mM KCl, 5 mM MgCl2, and 0.5 mMglutathione [pH 7.4]) to a concentration of 10 nM. A substrate mix consistingof 2mMNADPH, 6mMa-ketoglutarate, 8mMAMP, and 15 U GDH was prepared in buffer A. Substrate mix ([…]) was added to the plate, followed by centrifugation and incubation for 1 hr. Detection was by absorbance at 340 nm following the conversion of NADPH to NADP+. Recombinant AMPD enzyme activity assays were performed in a 384-well format using the same conditions as described above, except the assay volume was […] and the AMP concentration for the AMPD2 assay was 8 mM. Different AMPD enzyme concentrations were used to have linear reactions: hAMPD1 (4 nM), hAMPD2 (38 nM), hAMPD3 (1 nM), rAMPD1 (116 nM), rAMPD2 (53 nM), rAMPD3 (31 nM), and mAMPD1 (816 nM).

AMP deaminase 2 = target: T2, AMP deaminase 2 (Rattus norvegicus, UniProt Q02356)
T2 sequence (Q02356 whole entry): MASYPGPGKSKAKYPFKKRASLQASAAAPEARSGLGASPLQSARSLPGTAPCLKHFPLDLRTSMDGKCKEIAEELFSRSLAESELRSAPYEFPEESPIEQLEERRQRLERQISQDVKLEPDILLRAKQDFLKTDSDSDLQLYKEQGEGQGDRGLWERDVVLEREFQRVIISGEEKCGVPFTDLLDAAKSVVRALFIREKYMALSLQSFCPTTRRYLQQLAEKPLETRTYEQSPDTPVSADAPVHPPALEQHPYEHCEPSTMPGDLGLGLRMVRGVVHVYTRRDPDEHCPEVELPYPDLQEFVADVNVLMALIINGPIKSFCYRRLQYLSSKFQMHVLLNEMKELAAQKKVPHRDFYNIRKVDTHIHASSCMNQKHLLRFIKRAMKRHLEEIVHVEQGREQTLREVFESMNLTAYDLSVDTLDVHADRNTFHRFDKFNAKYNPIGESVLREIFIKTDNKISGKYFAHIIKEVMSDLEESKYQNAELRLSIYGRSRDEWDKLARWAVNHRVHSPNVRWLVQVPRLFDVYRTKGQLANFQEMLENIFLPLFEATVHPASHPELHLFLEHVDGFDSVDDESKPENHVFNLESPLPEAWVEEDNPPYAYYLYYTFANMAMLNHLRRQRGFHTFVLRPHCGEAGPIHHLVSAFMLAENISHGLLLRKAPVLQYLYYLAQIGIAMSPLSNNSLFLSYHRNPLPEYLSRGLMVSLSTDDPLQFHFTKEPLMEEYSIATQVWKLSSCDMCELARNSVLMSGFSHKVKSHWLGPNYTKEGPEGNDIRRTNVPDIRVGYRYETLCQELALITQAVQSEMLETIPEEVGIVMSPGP
Method: as §1

AMP deaminase 3 [2] = target: T3, AMP deaminase 3 (Homo sapiens, UniProt Q01432)
T3 sequence (Q01432 whole entry): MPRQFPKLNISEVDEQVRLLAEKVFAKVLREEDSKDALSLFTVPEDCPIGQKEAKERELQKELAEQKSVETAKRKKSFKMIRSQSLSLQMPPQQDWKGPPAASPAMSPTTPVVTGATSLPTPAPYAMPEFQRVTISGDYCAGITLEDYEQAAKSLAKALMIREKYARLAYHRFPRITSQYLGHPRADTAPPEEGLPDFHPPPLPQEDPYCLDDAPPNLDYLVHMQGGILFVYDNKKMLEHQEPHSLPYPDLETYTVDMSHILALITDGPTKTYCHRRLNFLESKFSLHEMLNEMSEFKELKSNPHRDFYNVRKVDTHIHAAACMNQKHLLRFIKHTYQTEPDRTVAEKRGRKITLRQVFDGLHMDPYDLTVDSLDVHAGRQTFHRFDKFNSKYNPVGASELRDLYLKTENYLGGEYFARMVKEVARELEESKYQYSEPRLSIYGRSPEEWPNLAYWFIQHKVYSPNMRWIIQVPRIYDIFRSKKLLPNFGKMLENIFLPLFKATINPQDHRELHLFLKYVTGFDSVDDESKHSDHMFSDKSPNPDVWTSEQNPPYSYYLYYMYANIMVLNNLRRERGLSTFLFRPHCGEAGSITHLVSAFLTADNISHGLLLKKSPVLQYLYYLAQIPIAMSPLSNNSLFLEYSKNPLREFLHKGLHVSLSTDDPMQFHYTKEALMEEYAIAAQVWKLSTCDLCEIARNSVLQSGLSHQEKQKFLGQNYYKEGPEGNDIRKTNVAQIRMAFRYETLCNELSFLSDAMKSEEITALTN
Method: as §1

pIC50 (AMP deaminase 3 [1]) | pIC50 (AMP deaminase 2) | pIC50 (AMP deaminase 3 [2]) | SMILES
4.36 | 4.49 | 5.14 | C[C@@H](NCc1ccc(-c2ccc(C(=O)O)cn2)cc1)c1cccc2ccncc12 [6-[4-({[(1R)-1-(isoquinolin-8-yl)ethyl]amino}methyl)phenyl]pyridine-3-carboxylic acid (Compound 2)]
6.40 | 6.24 | 7.12 | C[C@H](NCc1ccc(-c2ccc(C(=O)O)cn2)cc1)c1cccc2ccncc12 [6-[4-({[(1S)-1-(isoquinolin-8-yl)ethyl]amino}methyl)phenyl]pyridine-3-carboxylic acid (Compound 3)]
